Measurements from the supplement of paper PMC7600603.

Experiments:
DLD1 NRF2-GOF [1] = conditions: 72 h; CellTiter-Glo viability
Method in brief: (§1)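 Isogenic DLD1 colorectal cancer cells, either NRF2 wild-type or CRISPR gain-of-function, were grown in DMEM with 10% FBS. They were exposed in 384-well plates to library compounds at 5 concentrations spanning a 10,000-fold range. After 72 h, viability was read by CellTiter-Glo on a Pherastar FS reader and normalised to vehicle wells and 100-μM positive-control wells. EC50 and drug sensitivity score (a normalised area under the curve) came from four-parameter logistic dose-response fits.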

DLD1 NRF2-WT [2] = conditions: 72 h; CellTiter-Glo viability
Method in brief: as §1

DLD1 NRF2-GOF [3] = test: TC50 cytotoxicity; higher = less toxic; conditions: 72 h; CellTox Green cytotoxicity
Method in brief: (§2)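 TC50 and drug sensitivity score, a normalised area under the curve, were derived by logistic dose-response fits of cytotoxicity. The cells were an isogenic DLD1 colorectal cancer pair, NRF2 wild-type or CRISPR-edited, kept in DMEM with 10% FBS. Compounds were tested in 384-well plates at 5 concentrations across a 10,000-fold range for 72 h. Readings with CellTox Green on a Pherastar FS reader were normalised to vehicle wells and 100-μM positive-control wells.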

DLD1 NRF2-WT [4] = test: TC50 cytotoxicity; higher = less toxic; conditions: 72 h; CellTox Green cytotoxicity
Method in brief: as §2

DLD1 NRF2-GOF [5] = test: drug sensitivity score (DSS) cytotoxicity (DSS score); higher = more toxic; extreme values may be limits of the assay; conditions: 72 h; CellTox Green cytotoxicity
Method in brief: as §2

DLD1 NRF2-WT [6] = test: as above; conditions: 72 h; CellTox Green cytotoxicity
Method in brief: as §2

DLD1 NRF2-GOF [7] = test: drug sensitivity score (DSS) viability (DSS score); higher = more sensitive; extreme values may be limits of the assay; conditions: 72 h; CellTiter-Glo viability
Method in brief: as §1

DLD1 NRF2-WT [8] = test: as above; conditions: 72 h; CellTiter-Glo viability
Method in brief: as §1

EC50 viability (DLD1 NRF2-GOF [1]) [nM]	EC50 viability (DLD1 NRF2-WT [2]) [nM]	SMILES	TC50 cytotoxicity (DLD1 NRF2-GOF [3]) [nM]	TC50 cytotoxicity (DLD1 NRF2-WT [4]) [nM]	drug sensitivity score (DLD1 NRF2-GOF [5])	drug sensitivity score (DLD1 NRF2-WT [6])	drug sensitivity score (DLD1 NRF2-GOF [7])	drug sensitivity score (DLD1 NRF2-WT [8])
266	156	CN1CC[C@H](c2c(O)cc(O)c3c(=O)cc(-c4ccccc4Cl)oc23)[C@H](O)C1 [Alvocidib]	> 10000	> 10000	0	0.8	16.2	20.1
402	424	C=CC(=O)Nc1cc(Nc2nccc(-c3cn(C)c4ccccc34)n2)c(OC)cc1N(C)CCN(C)C [Osimertinib]	> 2500	> 2500	0	0.7	4.7	6.6
> 10000	> 10000	Cn1ncc(Cl)c1-c1cc(C(=O)N[C@H](CN)Cc2ccc(F)c(F)c2)oc1Cl [Uprosertib]	> 10000	> 10000	0	0	0	3.4
194	171	CO[C@@H](C)Cn1c(=O)n(C)c2cnc3ccc(-c4cncc(C(C)(C)O)c4)cc3c21	> 2500	> 2500	0	0	9.5	10.5
1510	1210	CCN(CC)CCCC(C)Nc1c2ccc(Cl)cc2nc2ccc(OC)cc12 (configuration not stated) [Mepacrine]	7070	5030	9.9	11.7	18.2	19.4
> 1000	> 1000	Cc1cnc(NC(=O)Nc2cc(Br)c(C)cc2OC[C@@H]2CNCCO2)cn1 [Rabusertib]	> 1000	> 1000	0	0	1	0.3
1750	1670	NS(=O)(=O)NCCNc1nonc1/C(=N/O)Nc1ccc(F)c(Br)c1 [Epacadostat]	> 10000	> 10000	0	0	3.2	3.8
114	102	CN1CCN(C(=O)c2ccc3cc(CCNc4ncnc5ccc(C#N)cc45)ccc3c2)CC1 [Senexin B]	> 1000	> 1000	0	0	3.6	3.5
64.9	322	CCS(=O)(=O)N1CCN(c2ccc(Nc3ncc(C(N)=O)c(NC4CC4)n3)cc2)CC1 [Cerdulatinib]	> 10000	> 10000	0	0	13.8	4.3
> 10000	> 10000	CC[C@H](Nc1ncnc2[nH]cnc12)c1nc2cccc(F)c2c(=O)n1-c1ccccc1 [Idelalisib]	> 10000	> 10000	0	0	2	1.6
9780	6410	CCN(CC)CCCC(C)Nc1ccnc2cc(Cl)ccc12 (configuration not stated) [Chloroquine]	25800	26100	5	6	11.8	13.8
425	167	COc1cc2c(Nc3ccc(Cl)c(Cl)c3F)ncnc2cc1OC[C@@H]1C[C@@H]2CN(C)C[C@@H]2C1 [Tesevatinib]	> 1000	> 1000	0	0.1	1.2	5.1
2520	1970	C=CC(=O)Nc1cc2c(Nc3ccc(F)c(Cl)c3)ncnc2cc1OCCCN1CCOCC1 [Canertinib]	3210	2390	5.5	7.1	6.8	8.1
44.4	53.1	Cc1ccc(Nc2nccc(N(C)c3ccc4c(C)n(C)nc4c3)n2)cc1S(N)(=O)=O [Pazopanib]	> 10000	> 10000	0	0	10.2	6.9
> 2500	993	CC(C)(C)c1nc(-c2cccc(NS(=O)(=O)c3c(F)cccc3F)c2F)c(-c2ccnc(N)n2)s1 [Dabrafenib]	> 2500	> 2500	0	0	0.6	1.4
103	75.1	COc1ccc(-c2ccc3c(N4CCOC[C@@H]4C)nc(N4CCOC[C@@H]4C)nc3n2)cc1CO [AZD8055]	> 10000	> 10000	0	0	17.4	19.1
> 10000	> 10000	CC(=O)O[C@]1(C(C)=O)CC[C@H]2[C@@H]3C=C(C)C4=CC(=O)CC[C@]4(C)[C@H]3CC[C@@]21C [Megestrol acetate]	> 10000	> 10000	0	0	2.4	0
> 1000	> 1000	Oc1ccc2c(c1)CC[C@H](c1ccccc1)[C@@H]2c1ccc(OCCN2CCCC2)cc1 [Lasofoxifene]	> 1000	> 1000	0	0	0	0

SMILES	EC50 viability (DLD1 NRF2-GOF [1]) [nM]	EC50 viability (DLD1 NRF2-WT [2]) [nM]	TC50 cytotoxicity (DLD1 NRF2-GOF [3]) [nM]	TC50 cytotoxicity (DLD1 NRF2-WT [4]) [nM]	drug sensitivity score (DLD1 NRF2-GOF [5])	drug sensitivity score (DLD1 NRF2-WT [6])	drug sensitivity score (DLD1 NRF2-GOF [7])	drug sensitivity score (DLD1 NRF2-WT [8])
CCNC(=O)C[C@@H]1N=C(c2ccc(Cl)cc2)c2cc(OC)ccc2-n2c(C)nnc21	> 10000	1090	> 10000	> 10000	0	0	0.1	5.2
